Reference: patent EP0570920A1, “Probe for cannabinoid receptors” (YISSUM RESEARCH AND DEVELOPMENT COMPANY OF THE HEBREW …, priority 1992, dated 1993)
Where two headings read alike, the source gives them in different places.

How the values were obtained:
[1] = cited from earlier work
[2] = Discrimination tests / in vivo experiment comparing (3), (7) and Δ¹-THC
cannabinoid receptor [3] = biological target: T1, cannabinoid receptor (Rattus norvegicus, UniProt P20272); test: Ligand binding assay with [³H]7, centrifugation assay on synaptosomal membrane preparation
T1 construct: a synaptosomal membrane preparation derived from rat whole brain, without brainstem; from tissue; host or cells: rat whole brain without brainstem, synaptosomal membranes

cannabinoid receptor [4] = biological target: T1, cannabinoid receptor; settings: cited from earlier work
[5] = pigeons; cited from earlier work
[6] = cited from earlier work; remark: listed apart in the source
[7] = Solubility of drug in BSA vehicle for binding assay; settings: at concentrations above 5 uM in 5 mg/ml BSA
[8] = in vivo; cited from earlier work

T1 sequence (P20272 whole entry): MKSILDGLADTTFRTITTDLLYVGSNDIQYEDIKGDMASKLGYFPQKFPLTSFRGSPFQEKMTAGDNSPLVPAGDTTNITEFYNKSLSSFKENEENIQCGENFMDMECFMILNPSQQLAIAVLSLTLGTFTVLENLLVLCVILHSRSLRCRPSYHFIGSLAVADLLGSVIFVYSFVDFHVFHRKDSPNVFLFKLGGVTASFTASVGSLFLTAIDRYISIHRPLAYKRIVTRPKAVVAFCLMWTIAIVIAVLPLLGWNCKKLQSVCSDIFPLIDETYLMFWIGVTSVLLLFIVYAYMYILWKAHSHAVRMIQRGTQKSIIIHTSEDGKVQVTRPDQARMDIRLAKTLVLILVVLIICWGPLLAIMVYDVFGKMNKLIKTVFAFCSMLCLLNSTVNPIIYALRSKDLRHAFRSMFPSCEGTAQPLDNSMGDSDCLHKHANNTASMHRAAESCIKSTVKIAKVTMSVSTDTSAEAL

7-hydroxyhexahydrocannabinols [Compound 5b]
times more active than Δ¹-THC in discrimination tests ([1]; depending on the animal used (pigeon or rat) and on the timing of measurement): 3-17 times | activity in discrimination tests relative to axial epimer (6b) ([1]; rat, in vivo): considerably more active

CCCCCCC(C)(C)c1cc(O)c2c(c1)OC(C)(C)C1CCC(CO)CC21 (stereo not drawn) [Compound 7, 7-hydroxy-hexahydrocannabinol-5'-dimethyl heptyl homologue]
activity in the discrimination tests, (3) versus (7) [2]: essentially equivalent in activity | times more potent than Δ¹-THC in the in vivo experiment [2]: 125 times | times more potent than (3) in the binding experiments (cannabinoid receptor [3]): about 4 times | times more potent than Δ¹-THC on binding (cannabinoid receptor [3]): about 1000 times | binding potency compared with CP-55940 (cannabinoid receptor [3]; Fig. 1): more potent than CP-55940 | binding capacity (cannabinoid receptor [3]; homologous displacement experiments with [³H]7): 4.41 ± 0.08 pmol/mg protein | Kd (cannabinoid receptor [3]; homologous displacement studies, [³H]7, rat whole brain synaptosomal membranes): 0.045 nM

CCCCCCC(C)(C)c1cc(O)c2c(c1)OC(C)(C)[C@@H]1CC=C(CO)C[C@@H]21 [Compound 3]
potency ratio of 3 to 4 for binding to the cannabinoid receptor (cannabinoid receptor [4]): circa 1500 | competition for the specific binding of [³H]1 (cannabinoid receptor [4]; membranes from rat brain): completes fully | Ki (cannabinoid receptor [4]; read-out: K, heterologous displacement of [³H]1, membranes from rat brain): 0.234 nM | times more potent than Δ¹-THC in drug discrimination [5]: 80 times | activity in the discrimination tests, (3) versus (7) [2]: essentially equivalent in activity | Ki (cannabinoid receptor [3]): 0.188 nM | times more potent than Δ¹-THC in pharmacological tests ([6]; various animal species): 100-800 times

CCCCCc1cc(O)c2c(c1)OC(C)(C)[C@@H]1CCC(C)=C[C@@H]21 [Δ¹-THC, Δ-tetrahydrocannabonol]
solubility in vehicle [7]: partial insolubility

CCCCCc1cc(O)c2c(c1)OC(C)(C)C1CCC(C)CC21 (stereo not drawn) [Compound 5a]
cannabimimetic activity relative to axial epimer (6a) [8]: more active

CCCCCCC(C)(C)c1cc(O)c2c(c1)OC(C)(C)[C@H]1CC=C(CO)C[C@H]21 [Compound 4]
Ki (cannabinoid receptor [3]): 466 nM | fold less potent than its enantiomer compound 3 (HU-210) in binding (cannabinoid receptor [3]; displacement of [³H]7): 2500 fold | potency relative to (3) in in vivo pharmacological tests ([6]; in vivo): several thousand times less potent
